ChEMBL document CHEMBL5608163, “Structure modification of anoplin for fighting resistant bacteria” (Eur J Med Chem, 2024)
≈ marks a conversion by molar mass, not a printed value. Peptide text beside a SMILES is read from it.

What was measured:
[1] = test system: Escherichia coli; assay: Antibacterial activity against Escherichia coli ATCC 25922 assessed as bacterial growth inhibition measured after 48 hrs by resazurin assay; assay type: functional
[2] = Hemolytic activity in human RBC assessed as hemolysis; assay type: toxicity, cell-based, Erythrocyte; settings: red blood cells
[3] = test system: Staphylococcus aureus; assay: Antibacterial activity against Staphylococcus aureus ATCC 25923 assessed as reduction in bacterial growth incubated for 24 hrs by serial dilution method; assay type: functional
[4] = test system: Escherichia coli; assay: Antibacterial activity against Escherichia coli; assay type: functional
[5] = test system: Staphylococcus aureus; assay: Antibacterial activity against Staphylococcus aureus; assay type: functional

MIC [1] [µM] | MIC [3] [µM] | MIC [4] [µM] | MIC [5] [µM] | Compound | HC50 [2] [µM]
6.7 (≈ 8.04 µg/mL) | 6.7 (≈ 8.04 µg/mL) | – | – | CC[C@H](C)[C@H](NC(=O)[C@H](CCCNC(=N)N)NC(=O)[C@H](CCCCN)NC(=O)[C@H](CC(C)C)NC(=O)[C@H](CC(C)C)NC(=O)CN)C(=O)N[C@@H](CCCCN)C(=O)N[C@@H](Cc1ccccc1)C(=O)N[C@@H](CC(C)C)C(=O)N[C@@H](CC(C)C)C(N)=O (H-GLLKRIKFLL-NH2) | 326
7.7 (≈ 8.97 µg/mL) | 12 (≈ 14 µg/mL) | – | – | CC[C@H](C)[C@H](NC(=O)[C@H](CCCCN)NC(=O)[C@@H](NC(=O)[C@H](CCCNC(=N)N)NC(=O)[C@H](CCCCN)NC(=O)[C@H](CC(C)C)NC(=O)[C@H](CC(C)C)NC(=O)CN)[C@@H](C)CC)C(=O)N[C@@H](CC(C)C)C(=O)N[C@@H](CC(C)C)C(N)=O (H-GLLKRIKILL-NH2) | 81.8
11.2 (≈ 13.1 µg/mL) | 6 (≈ 6.99 µg/mL) | – | – | CC[C@H](C)[C@H](NC(=O)[C@H](CCCNC(=N)N)NC(=O)[C@H](CCCCN)NC(=O)[C@H](CC(C)C)NC(=O)[C@H](CC(C)C)NC(=O)CN)C(=O)N[C@@H](CCCCN)C(=O)N[C@@H](CC(C)C)C(=O)N[C@@H](CC(C)C)C(=O)N[C@@H](CC(C)C)C(N)=O (H-GLLKRIKLLL-NH2) | 102
18.9 (≈ 22 µg/mL) | 10.3 (≈ 12 µg/mL) | – | – | CC[C@H](C)[C@H](NC(=O)[C@H](CCCNC(=N)N)NC(=O)[C@H](CCCCN)NC(=O)[C@H](CC(C)C)NC(=O)[C@H](CC(C)C)NC(=O)CN)C(=O)N[C@@H](CCCCN)C(=O)N[C@@H](CC(N)=O)C(=O)N[C@@H](CC(C)C)C(=O)N[C@@H](CC(C)C)C(N)=O (H-GLLKRIKNLL-NH2) | 79.2
19.1 (≈ 22 µg/mL) | 19.1 (≈ 22 µg/mL) | – | – | CC[C@H](C)[C@H](NC(=O)[C@H](CCCNC(=N)N)NC(=O)[C@H](CCCCN)NC(=O)[C@H](CC(C)C)NC(=O)[C@H](CC(C)C)NC(=O)CN)C(=O)N[C@@H](CCCCN)C(=O)N[C@H](C(=O)N[C@@H](CC(C)C)C(=O)N[C@@H](CC(C)C)C(N)=O)C(C)C (H-GLLKRIKVLL-NH2) | 69.5
6.5 (≈ 8.05 µg/mL) | 3.2 (≈ 3.96 µg/mL) | – | – | CC[C@H](C)[C@H](NC(=O)[C@H](CCCNC(=N)N)NC(=O)[C@H](CCCCN)NC(=O)[C@H](CC(C)C)NC(=O)[C@H](CC(C)C)NC(=O)CN)C(=O)N[C@@H](CCCCN)C(=O)N[C@@H](Cc1c[nH]c2ccccc12)C(=O)N[C@@H](CC(C)C)C(=O)N[C@@H](CC(C)C)C(N)=O (H-GLLKRIKWLL-NH2) | 500
– | – | 25.6 (≈ 28 µg/mL) | 12.8 (≈ 14 µg/mL) | CC[C@H](C)[C@H](NC(=O)[C@@H](NC(=O)[C@H](CCCCN)NC(=O)[C@H](CC(C)C)NC(=O)[C@H](CC(C)C)NC(=O)CN)C(C)C)C(=O)N[C@@H](CCCCN)C(=O)N[C@H](C(=O)N[C@@H](CC(C)C)C(=O)N[C@@H](CC(C)C)C(N)=O)C(C)C (H-GLLKVIKVLL-NH2) | 190
– | – | 2.5 (≈ 3.04 µg/mL) | 5.8 (≈ 7.05 µg/mL) | CC[C@H](C)[C@H](NC(=O)[C@H](Cc1ccccc1)NC(=O)[C@H](CCCCN)NC(=O)[C@H](CC(C)C)NC(=O)[C@H](CC(C)C)NC(=O)[C@@H](N)CCCCN)C(=O)N[C@@H](CCCCN)C(=O)N[C@H](C(=O)N[C@@H](CC(C)C)C(=O)N[C@@H](CC(C)C)C(N)=O)[C@@H](C)O (H-KLLKFIKTLL-NH2) | 295
– | – | 29.6 (≈ 37.1 µg/mL) | 22.4 (≈ 28 µg/mL) | CC[C@H](C)[C@H](NC(=O)[C@H](CCCNC(=N)N)NC(=O)[C@H](CCCCN)NC(=O)[C@H](CC(C)C)NC(=O)[C@H](CC(C)C)NC(=O)[C@@H](N)CCCCN)C(=O)N[C@@H](CCCCN)C(=O)N[C@@H](CCCCN)C(=O)N[C@@H](CC(C)C)C(=O)N[C@@H](CC(C)C)C(N)=O (H-KLLKRIKKLL-NH2) | 193
– | – | 19.6 (≈ 24 µg/mL) | > 19.6 | CC[C@H](C)[C@H](NC(=O)[C@H](CCCNC(=N)N)NC(=O)[C@H](CCCCN)NC(=O)[C@H](CC(C)C)NC(=O)[C@H](CC(C)C)NC(=O)[C@@H](N)CCCCN)C(=O)N[C@@H](CCCCN)C(=O)N[C@H](C(=O)N[C@@H](CC(C)C)C(=O)N[C@@H](CC(C)C)C(N)=O)[C@@H](C)O (H-KLLKRIKTLL-NH2) | 29.3
